Like-named read-outs stand apart in the source and are kept apart here. Marks after values point to notes of the source that are not given here.
Legend:
[1] = Cytotoxicity assay (MTT); assay type: cell-based; conditions: African green monkey
Procedure: The cytotoxicity of the drugs to Vero cells (African green monkey kidney cells) was detected as previously described (Huang et al., [2012]) with minor modifications. In 96-well cell culture plates, the cells (~10^3 cells per well) were exposed to the serially diluted drugs for 48 h. Then, relative cell numbers were assayed by co-incubation with 3-(4, 5-dimethylthiazol-2-yl)-2, 5-diphenyltetrazolium bromide for 4 h at 37°C in 5% CO2. Purple formazan salts were dissolved with DMSO after incubation. The absorbance of each well was measured at 595 nm and then converted to percentages of the control (cells treated with 1% DMSO). The concentration of the derivatives with 50% cytotoxicity for Vero cells (CC50) was calculated using GraphPad Prism 5 (San Diego, CA).

[2] = tested on: S. aureus; assay: Checkerboard test with penicillin against S. aureus; assay type: cell-based, Staphylococcus aureus; conditions: for MIC: Staphylococcus aureus; for reduction of MIC in combination with PEN: four strains of MRSA
Procedure: (§1) Minimum inhibitory concentration (MIC) assays for the antibacterial activities of the compounds were performed according to the standard […] method of the Clinical and Laboratory Standards Institute of America. MIC testing of drug-resistant S. pneumoniae, drug-resistant S. aureus, streptococci and antimicrobial combination was also performed using the same method. Briefly, the drugs were serially diluted 2-fold into eight wells with C+Y medium, yielding final concentrations ranging from […]. Then 10^6 CFU bacteria were added to each well. Inoculated medium containing 1% DMSO served as a bacterial growth control, whereas uninoculated medium served as a sterility control. The plates were incubated at 37°C for 12–16 h. […] The experiment was repeated three times.
The antimicrobial effects of different combinations of two antimicrobial agents were assayed using the checkerboard test (Bajaksouzian et al., [1997]). Each experiment was repeated thrice. The in vitro interaction between the five drugs with PEN was quantified by the fractional inhibitory concentration (FIC). The FIC index (FICI) was calculated using the following formula:
(2) FIC=FICA+FICB=[A]/MICA+[B]/MICB
where [A] and [B] are the concentrations of drugs A and B, respectively; MICA and FICA are the MIC and FIC of drug A for the organism, respectively; and MICB, and FICB are the MIC and FIC of drug B for the organism, respectively. The FIC index obtained was interpreted as follows: =0.5, synergy; FIC > 2.0, antagonism (Gupta and Kohli, [2003]).

[3] = tested on: S. pyogenes; assay: MIC against S. pyogenes; assay type: cell-based; conditions: Streptococcus pyogenes
Procedure: as §1

[4] = tested on: Methicillin resistant S. aureus; assay: MIC against methicillin resistant S. aureus; assay type: cell-based; conditions: Staphylococcus aureus
Procedure: as §1

[5] = tested on: clinical S. pneumoniae 19A (CMCC31689); assay: Mouse colonization model, serotype 19A; assay type: in vivo, BALB/c mice; conditions: for Mean log CFU at site of infection: 19A; for reduction of 19A bacterial numbers: at 24 h
Procedure: In colonization models, the mice were intranasally challenged by 20 μL of clinical drug-resistant strains (pneumococcal serotype 19F or 19A, 1.5 × 10^8 CFU). An hour later, the mice were intraperitoneally injected with 100 μL drugs (2 × MIC) alone or in combination with PEN (2 × MIC). These injections were continued thrice a day for 3 d. Nasal wash and lung tissues were obtained to analyze the bacteria load at 24, 48, and 72 h after drug infection. Then 100 μL aliquots of the samples diluted were plated on blood agar plates. The colonies were counted after incubation overnight at 37°C with 5% CO2.

[6] = tested on: S. mitis; assay: MIC against S. mitis; assay type: cell-based; conditions: Streptococcus mitis
Procedure: as §1

[7] = NW (nasal wash), 24 h, i.p. three times a day for 3 days, control 7.29

Compound	reduction of MIC in combination with PEN [2] [fold]	Mean log CFU at site of infection ([5]; Lung, 24 h, control 4.85) [log CFU]	Mean log CFU at site of infection ([5]; Lung, 48 h, control 6.12)	Mean log CFU at site of infection ([5]; Lung, 72 h, control 6.29)	Mean log CFU at site of infection [5, 7]	Mean log CFU at site of infection ([5]; NW, 48 h, control 5.97)	Mean log CFU at site of infection ([5]; NW, 72 h, control 6.01)	reduction of 19A bacterial numbers [5]	also measured
CCCCCCCCCCCCOC(=O)c1cc(O)c(O)c(O)c1 [Compound 5, Dodecyl gallate]	2	1	3 log CFU	2.82 log CFU	5.91 (0.021)^b log CFU	5.28 log CFU	3.62 (0.033)^b log CFU	two-log reduction	CC50 at 48 h ([1]; Vero cells (African green monkey kidney cells)): 6.45 mM; MIC ([2]; ATCC29213, S. aureus ATCC29213, agent alone, read-out: MIC, Alone): 168 µg/mL; MIC ([2]; MRSA8506305, agent alone, read-out: MIC, Alone): 337 µg/mL; MIC ([2]; MRSA8548991, agent alone, read-out: MIC, Alone): 84.4 µg/mL; MIC ([2]; MRSA, MRSA 8569082, agent alone, read-out: MIC, Alone): 84.4 µg/mL; MIC ([3]; S. pyogenes clinical isolate, 10^6 CFU/ml, read-out: MIC): 42 µg/mL; MIC ([4]; Methicillin resistant S. aureus (4 isolates), 10^6 CFU/ml, read-out: MIC): 84.4 to 336 µg/mL; MIC ([6]; S. mitis clinical isolate, 10^6 CFU/ml, read-out: MIC): 338 µg/mL
CC(C)=CCCC1=CC(=O)c2c(O)ccc(O)c2C1=O [Compound 3, Deoxyshikonin]	2	1	2.39 (0.0001)^b log CFU	1.05 (0.04)^b log CFU	6.08 (0.026)^b log CFU	2.76 (0.005)^b log CFU	3 (0.011)^b log CFU	two-log reduction	CC50 at 48 h ([1]; Vero cells): 4.68 mM; MIC, Alone ([2]; MRSA8548991, agent alone): 34 µg/mL; MIC ([2]; ATCC29213, read-out: MIC, Alone): 34 µg/mL; MIC ([2]; MRSA, read-out: MIC, Alone): 68 µg/mL; MIC ([2]; read-out: MIC, Alone): 34 µg/mL; MIC [3]: 8.5 µg/mL; MIC [4]: 34 to 68 µg/mL; MIC [6]: 125 µg/mL

Reference: PMC4438233, “Antibacterial effects of Traditional Chinese Medicine monomers against Streptococcus pneumoniae via inhibiting pneumococcal histidine kinase (VicK)” (Frontiers in Microbiology, 2015)
